Test results: patent publication US20030109702A1, “Pyrazolyl benzyl ethers” (priority 1999, published 2003)

Key:
Meloidogyne incognita = assay: Meloidogyne test; format: in vivo; conditions: lettuce in sand, concentration of active compound 20 ppm
Protocol: [table] To produce a suitable preparation of active compound, 1 part by weight of active compound is mixed with the stated amounts of solvent and emulsifier, and the concentrate is diluted with water to the desired concentration. Containers are filled with sand, solution of active compound, Meloidogyne incognita egg/larvae suspension and lettuce seeds. The lettuce seeds germinate and the plants develop. On the roots, galls are formed. After the desired period of time, the nematicidal action is determined in % via the formation of galls. 100% means that no galls were found; 0% means that the number of galls on the treated plants corresponds to that on the untreated control.

[1] = tested on: green peach aphid (Myzus persicae); assay: Myzus test; format: in vivo; conditions: broad bean seedlings dipped, concentration of active compound 1000 ppm
Protocol: [table] To produce a suitable preparation of active compound, 1 part by weight of active compound is mixed with the stated amount of solvent and the stated amount of emulsifier, and the concentrate is diluted with emulsifier-containing water to the desired concentrations. Broad bean seedlings (Vicia faba) infested by the green peach aphid (Myzus persicae) are dipped into a preparation of active compound of the desired concentration and placed into a dish made of plastic. After the desired period of time, the kill in % is determined. 100% means that all of the animals have been killed; 0% means that none of the animals have been killed.

## CON=C(C1=NOCCO1)c1ccccc1COc1ccn(-c2ccccc2Cl)n1 [Example 9]
physchem
  chromatographic logP: 3.2

## CON=C(C1=NOCCO1)c1ccccc1COc1ccn(-c2ccccc2C)n1 [Example 11]
physchem
  chromatographic logP: 3.15

## CON=C(C1=NOCCO1)c1ccccc1COc1ccn(Cc2ccccc2)n1 [Example 35]
physchem
  chromatographic logP: 2.79

## CON=C(C1=NOCCO1)c1ccccc1COc1ccn(-c2ccc(Br)cc2)n1 [Example 3]
physchem
  chromatographic logP: 3.67

## CON=C(C1=NOCCO1)c1ccccc1COc1ccn(-c2cc(C)ccc2C)n1 [Example 22]
physchem
  chromatographic logP: 3.52

## CON=C(C1=NOCCO1)c1ccccc1COc1ccn(-c2cccc(Br)c2)n1 [Example 10]
physchem
  chromatographic logP: 3.68

## CON=C(C1=NOCCO1)c1ccccc1COc1ccn(-c2cccc(F)c2)n1 [Example 21]
physchem
  chromatographic logP: 3.24

## CON=C(C1=NOCCO1)c1ccccc1COc1ccn(-c2ccc(C)cc2)n1 [Example 5]
physchem
  chromatographic logP: 3.4

## CON=C(C1=NOCCO1)c1ccccc1COc1ccn(-c2cccc(Cl)c2Cl)n1 [Example 18]
physchem
  chromatographic logP: 3.59

## CON=C(C1=NOCCO1)c1ccccc1COc1ccn(-c2ccccc2F)n1 [Example 20]
physchem
  chromatographic logP: 3.19

## CON=C(C1=NOCCO1)c1ccccc1COc1ccn(-c2cc(C)cc(C)c2)n1 [Example 30]
physchem
  chromatographic logP: 3.79

## CON=C(C1=NOCCO1)c1ccccc1COc1ccn(-c2c(Cl)cccc2Cl)n1 [Example 17]
physchem
  chromatographic logP: 4.08

## CON=C(C1=NOCCO1)c1ccccc1COc1ccn(-c2cccc(C)c2C)n1 [Example 28]
physchem
  chromatographic logP: 3.68

## CON=C(C1=NOCCO1)c1ccccc1COc1ccn(-c2ccc(Cl)cc2Cl)n1 [Example 14]
physchem
  chromatographic logP: 3.78

## CON=C(C1=NOCCO1)c1ccccc1COc1ccn(-c2ccc(Cl)c(Cl)c2)n1 [Example 6]
physchem
  chromatographic logP: 4.02

## CON=C(C1=NOCCO1)c1ccccc1COc1ccn(-c2cccc3ccccc23)n1 [Example 31]
physchem
  chromatographic logP: 3.51

## CCc1ccccc1-n1ccc(OCc2ccccc2C(=NOC)C2=NOCCO2)n1 [Example 26]
physchem
  chromatographic logP: 3.47

## CON=C(C1=NOCCO1)c1ccccc1COc1ccn(-c2ccccc2)n1 [Example 13]
physchem
  chromatographic logP: 3.06

## CON=C(C1=NOCCO1)c1ccccc1COc1ccn(-c2ccccc2OC)n1 [Example 48]
physchem
  chromatographic logP: 2.87

## CON=C(C1=NOCCO1)c1ccccc1COc1ccn(-c2ccc(I)cc2)n1 [Example 46]
physchem
  chromatographic logP: 3.84

## CON=C(C1=NOCCO1)c1ccccc1COc1ccn(-c2ccc(F)cc2)n1 [Example 4]
physchem
  chromatographic logP: 3.15

## CON=C(C1=NOCCO1)c1ccccc1COc1ccn(-c2ccc(C)cc2C)n1 [Example 25]
physchem
  chromatographic logP: 3.5

## CON=C(C1=NOCCO1)c1ccccc1COc1ccn(-c2ccc(C(C)C)cc2)n1 [Example 16]
physchem
  chromatographic logP: 4.08

## CON=C(C1=NOCCO1)c1ccccc1COc1ccn(Cc2cccc(C)c2)n1 [Example 32]
physchem
  chromatographic logP: 3.11

## CON=C(C1=NOCCO1)c1ccccc1COc1ccn(-c2cccc(Cl)c2)n1 [Example 8]
physchem
  chromatographic logP: 3.59

## CON=C(C1=NOCCO1)c1ccccc1COc1ccn(-c2ccccc2Br)n1 [Example 2]
physchem
  chromatographic logP: 3.21

## CON=C(C1=NOCCO1)c1ccccc1COc1ccn(-c2ccc(C(C)(C)C)cc2)n1 [Example 15]
physchem
  chromatographic logP: 4.33

## CON=C(C1=NOCCO1)c1ccccc1COc1ccn(-c2c(Cl)cc(Cl)cc2Cl)n1 [Example 24]
physchem
  chromatographic logP: 3.74

## CON=C(C1=NOCCO1)c1ccccc1COc1ccn(-c2ccc(C#N)cc2)n1 [Example 12]
physchem
  chromatographic logP: 2.89
Meloidogyne incognita
  kill rate (nematicidal action via the formation of galls): 100%

## CCOc1ccccc1-n1ccc(OCc2ccccc2C(=NOC)C2=NOCCO2)n1 [Example 43]
physchem
  chromatographic logP: 3.43

## CON=C(C1=NOCCO1)c1ccccc1COc1ccn(-c2cc(Cl)cc(Cl)c2)n1 [Example 7]
physchem
  chromatographic logP: 4.24

## CON=C(C1=NOCCO1)c1ccccc1COc1ccn(-c2ccc(Cl)cc2)n1 [Example 1, [2-({[1-(4-chlorophenyl)-1H-pyrazol-3-yl]oxy}methyl)phenyl](5,6-dihydro-1,4,2-dioxazin-3-yl)methanone O-methyl oxime]
[1]
  kill rate: 90%
Meloidogyne incognita
  kill rate (nematicidal action via the formation of galls): 100%

## CON=C(C1=NOCCO1)c1ccccc1COc1ccn(CC2CCCCC2)n1 [Example 334]
physchem
  chromatographic logP: 3.52

## CON=C(C1=NOCCO1)c1ccccc1COc1ccn(-c2cc(Cl)ccc2Cl)n1 [Example 27]
physchem
  chromatographic logP: 3.74

## CON=C(C1=NOCCO1)c1ccccc1COc1ccn(-c2ccc(OC)cc2)n1 [Example 39]
physchem
  chromatographic logP: 3

## CON=C(C1=NOCCO1)c1ccccc1COc1ccn(-c2ccc(C)c(C)c2)n1 [Example 29]
physchem
  chromatographic logP: 3.68

## C=CCn1ccc(OCc2ccccc2C(=NOC)C2=NOCCO2)n1 [Example 44]
physchem
  chromatographic logP: 2.61

## CON=C(C1=NOCCO1)c1ccccc1COc1ccn(Cc2ccc(C(C)(C)C)cc2)n1 [Example 33]
physchem
  chromatographic logP: 3.97

## CON=C(C1=NOCCO1)c1ccccc1COc1ccn(-c2ccc(F)cc2F)n1 [Example 19]
physchem
  chromatographic logP: 3.28

## CCc1ccc(-n2ccc(OCc3ccccc3C(=NOC)C3=NOCCO3)n2)cc1 [Example 42]
physchem
  chromatographic logP: 3.76

## CON=C(C1=NOCCO1)c1ccccc1COc1ccn(Cc2ccc(Cl)cc2)n1 [Example 36]
physchem
  chromatographic logP: 3.19
